Reference: article PMC11183015, “In vivo stable ^211At-labeled prostate-specific membrane antigen-targeted tracer using a neopentyl glycol structure” (EJNMMI Radiopharmacy and Chemistry, 2024)
Marks after values point to notes of the source that are not given here.

Tests used:
Format in all cases: in vivo, mouse
[1] = Biodistribution of radioactivity in normal mice
Procedure: Six-week-old male ddY mice were injected via the tail vein with each radiolabeled PSMA derivative. Animals were sacrificed and the organs were dissected at 10 min, 1 h, 3 h, and 6 h after injection. Metabolic cages were used for housing normal mice. The tissues of interest were excised and weighed, and the radioactivity counts in each tissue were determined using an auto-well gamma counter. Each value was expressed as the mean percent injected dose/g tissue ± SD for a group of 3–5 animals, except those for the stomach, intestine, and thyroid.

LNCaP cell xenografts = experiment: Biodistribution of radioactivity in tumor-bearing mice; settings: for Radioactivity in Intestine / Radioactivity in Neck / Radioactivity in Stomach: LNCaP tumor-bearing BALB/c-nu/nu mice; for Radioactivity in Blood / Radioactivity in Bone / Radioactivity in Heart / Radioactivity in Kidney / Radioactivity in Liver / Radioactivity in Lung / Radioactivity in Muscle / Radioactivity in Pancreas / Radioactivity in Spleen / Radioactivity in Tumor: male, BALB/c-nu/nu, mouse, in vivo
Procedure: Animal studies were conducted in accordance with the institutional guidelines approved by the Chiba University Animal Care Committee (Permit No. 4–183). Five-week-old male ddY mice and BALB/c-nu/nu mice were purchased from Japan SLC Inc. (Hamamatsu, Japan). LNCaP cells (5.0 × 10^6 cells) were suspended in 100 μL of PBS and Matrigel (BD Biosciences, Franklin Lakes, NJ, USA) in a 1:1 ratio. Tumor xenograft models were prepared via subcutaneous injection of this LNCaP cell suspension into BALB/c nude mice.
Biodistribution studies were conducted using male BALB/c-nu/nu mice bearing LNCaP cell xenografts at 1 and 3 h postinjection of [^211At]At-NpG-D-PSMA (100 µL, 37 kBq) and 1 and 6 h postinjection of ^125I-labeled PSMA derivative (100 µL, 11.1 kBq). In the blocking study, [^125I]I-NpG-D-PSMA was coinjected with 2-PMPA (50 mg/kg weight) into tumor-bearing mice via the tail vein. At 1 h postinjection, the mice were sacrificed. The tissues of interest were excised and weighed, and the radioactivity counts in each tissue were determined using an auto-well gamma counter. Each value was expressed as the mean percent injected dose/g tissue ± SD for a group of 3–5 animals, except those for the stomach, intestine, and thyroid.

[2] = Analysis of radiometabolites in urine by RP-HPLC; settings: normal ddY mice, urine up to 6 h after injection
Procedure: Urine samples were collected from 6-week-old ddY mice 6 h after injection of each ^125I-labeled PSMA derivative (100 µL, 370 kBq). After ethanol precipitation of proteins, the urine samples were filtered through a polycarbonate membrane (0.45 µm) and analyzed by RP-HPLC (System 2).

[3] = normal ddY mice, i.v., 6 h, metabolic cages

Radioactivity in Blood ([1]; normal ddY mice, i.v., 10 min): 1.48 ± 0.20^b %ID/g
Radioactivity in Bone ([1]; normal ddY mice, i.v., 10 min): 0.68 ± 0.18^a %ID/g
Radioactivity in Heart ([1]; normal ddY mice, i.v., 10 min): 1.12 ± 0.24 %ID/g
Radioactivity in Intestine ([1]; normal ddY mice, i.v., 10 min): 2.49 ± 0.66 %ID
Radioactivity in Kidney ([1]; normal ddY mice, i.v., 10 min): 92.3 ± 11.0^b %ID/g
Radioactivity in Liver ([1]; normal ddY mice, i.v., 10 min): 1.64 ± 0.33^a %ID/g
Radioactivity in Lung ([1]; normal ddY mice, i.v., 10 min): 2.15 ± 0.49^a %ID/g
Radioactivity in Muscle ([1]; normal ddY mice, i.v., 10 min): 0.62 ± 0.18^a %ID/g
Radioactivity in Neck ([1]; normal ddY mice, i.v., 10 min): 0.34 ± 0.09^a %ID
Radioactivity in Pancreas ([1]; normal ddY mice, i.v., 10 min): 0.80 ± 0.16 %ID/g
Radioactivity in Spleen ([1]; normal ddY mice, i.v., 10 min): 2.23 ± 1.10 %ID/g
Radioactivity in Stomach ([1]; normal ddY mice, i.v., 10 min): 0.33 ± 0.09 %ID
Radioactivity in Blood ([1]; normal ddY mice, i.v., 1 h): 0.26 ±0.01 %ID/g
Radioactivity in Bone ([1]; normal ddY mice, i.v., 1 h): 0.36 ± 0.43 %ID/g
Radioactivity in Heart ([1]; normal ddY mice, i.v., 1 h): 0.60 ± 0.37 %ID/g
Radioactivity in Intestine ([1]; normal ddY mice, i.v., 1 h): 3.40 ± 0.86^a %ID
Radioactivity in Kidney ([1]; normal ddY mice, i.v., 1 h): 113.6 ±3.86^ab %ID/g
Radioactivity in Liver ([1]; normal ddY mice, i.v., 1 h): 0.99 ± 0.14^ab %ID/g
Radioactivity in Lung ([1]; normal ddY mice, i.v., 1 h): 0.69 ± 0.16^ab %ID/g
Radioactivity in Muscle ([1]; normal ddY mice, i.v., 1 h): 0.14 ± 0.03 %ID/g
Radioactivity in Neck ([1]; normal ddY mice, i.v., 1 h): 0.07 ± 0.03^a %ID
Radioactivity in Pancreas ([1]; normal ddY mice, i.v., 1 h): 1.40 ± 1.78 %ID/g
Radioactivity in Spleen ([1]; normal ddY mice, i.v., 1 h): 1.05 ± 0.19^ab %ID/g
Radioactivity in Stomach ([1]; normal ddY mice, i.v., 1 h): 0.35 ± 0.30 %ID
Radioactivity in Blood ([1]; normal ddY mice, i.v., 3 h): 0.04 ± 0.01 %ID/g
Radioactivity in Bone ([1]; normal ddY mice, i.v., 3 h): 0.09 ± 0.04 %ID/g
Radioactivity in Heart ([1]; normal ddY mice, i.v., 3 h): 0.06 ± 0.01 %ID/g
Radioactivity in Intestine ([1]; normal ddY mice, i.v., 3 h): 4.96 ± 0.17^ab %ID
Radioactivity in Kidney ([1]; normal ddY mice, i.v., 3 h): 38.6 ± 11.9^a %ID/g
Radioactivity in Liver ([1]; normal ddY mice, i.v., 3 h): 0.43 ± 0.01^ab %ID/g
Radioactivity in Lung ([1]; normal ddY mice, i.v., 3 h): 0.21 ± 0.03^ab %ID/g
Radioactivity in Muscle ([1]; normal ddY mice, i.v., 3 h): 0.10 ± 0.05 %ID/g
Radioactivity in Neck ([1]; normal ddY mice, i.v., 3 h): 0.01 ± 0.00 %ID
Radioactivity in Pancreas ([1]; normal ddY mice, i.v., 3 h): 0.12 ± 0.03 %ID/g
Radioactivity in Spleen ([1]; normal ddY mice, i.v., 3 h): 0.22 ± 0.07^ab %ID/g
Radioactivity in Stomach ([1]; normal ddY mice, i.v., 3 h): 0.08 ± 0.02^b %ID
Radioactivity in Blood ([1]; normal ddY mice, i.v., 6 h): 0.03 ± 0.02 %ID/g
Radioactivity in Bone ([1]; normal ddY mice, i.v., 6 h): 0.05 ± 0.01 %ID/g
Radioactivity in Heart ([1]; normal ddY mice, i.v., 6 h): 0.05 ± 0.05 %ID/g
Radioactivity in Intestine ([1]; normal ddY mice, i.v., 6 h): 4.60 ± 2.56 %ID
Radioactivity in Kidney ([1]; normal ddY mice, i.v., 6 h): 21.2 ± 9.70^a %ID/g
Radioactivity in Liver ([1]; normal ddY mice, i.v., 6 h): 0.53 ±0.02^ab %ID/g
Radioactivity in Lung ([1]; normal ddY mice, i.v., 6 h): 0.09 ± 0.03^a %ID/g
Radioactivity in Muscle ([1]; normal ddY mice, i.v., 6 h): 0.05 ± 0.01 %ID/g
Radioactivity in Neck ([1]; normal ddY mice, i.v., 6 h): 0.02 ± 0.01 %ID
Radioactivity in Pancreas ([1]; normal ddY mice, i.v., 6 h): 0.07 ± 0.04 %ID/g
Radioactivity in Spleen ([1]; normal ddY mice, i.v., 6 h): 0.11 ± 0.03^a %ID/g
Radioactivity in Stomach ([1]; normal ddY mice, i.v., 6 h): 0.23 ± 0.29 %ID
Radioactivity in Feces [1, 3]: 0.45 ± 0.48 %ID
Radioactivity in Urine [1, 3]: 53.3 ± 5.56 %ID
Accumulation in the stomach and thyroid (stability against deiodination) ([1]; normal mice): low accumulation
Radioactivity in Intestine (LNCaP cell xenografts; 1 h): 2.52 ± 0.29^a %ID
Radioactivity in Neck (LNCaP cell xenografts; 1 h): 0.45 ± 0.13^a %ID
Radioactivity in Stomach (LNCaP cell xenografts; 1 h): 0.23 ± 0.04 %ID
Radioactivity in Intestine (LNCaP cell xenografts; 6 h): 1.87 ± 0.41 %ID
Radioactivity in Neck (LNCaP cell xenografts; 6 h): 3.19 ± 1.28 %ID
Radioactivity in Stomach (LNCaP cell xenografts; 6 h): 0.15 ± 0.07 %ID
Radioactivity in Blood (LNCaP cell xenografts; 1 h): 0.66 ± 0.18 %ID/g
Radioactivity in Bone (LNCaP cell xenografts; 1 h): 0.47 ± 0.12^a %ID/g
Radioactivity in Heart (LNCaP cell xenografts; 1 h): 1.62 ± 0.87 %ID/g
Radioactivity in Kidney (LNCaP cell xenografts; 1 h): 223 ± 5.91^a %ID/g
Radioactivity in Liver (LNCaP cell xenografts; 1 h): 1.85 ± 0.50^a %ID/g
Radioactivity in Lung (LNCaP cell xenografts; 1 h): 2.78 ± 0.93 %ID/g
Radioactivity in Muscle (LNCaP cell xenografts; 1 h): 0.64 ± 0.21^a %ID/g
Radioactivity in Pancreas (LNCaP cell xenografts; 1 h): 1.17 ± 0.38 %ID/g
Radioactivity in Spleen (LNCaP cell xenografts; 1 h): 37.0 ± 10.4 %ID/g
Radioactivity in Tumor (LNCaP cell xenografts; 1 h): 9.19 ± 1.89^a %ID/g
Radioactivity in Blood (LNCaP cell xenografts; 6 h): 0.11 ± 0.03^a %ID/g
Radioactivity in Bone (LNCaP cell xenografts; 6 h): 0.09 ± 0.02 %ID/g
Radioactivity in Heart (LNCaP cell xenografts; 6 h): 0.22 ± 0.06^a %ID/g
Radioactivity in Kidney (LNCaP cell xenografts; 6 h): 226 ± 30.0 %ID/g
Radioactivity in Liver (LNCaP cell xenografts; 6 h): 0.44 ± 0.02^a %ID/g
Radioactivity in Lung (LNCaP cell xenografts; 6 h): 0.59 ± 0.12^a %ID/g
Radioactivity in Muscle (LNCaP cell xenografts; 6 h): 0.27 ± 0.31 %ID/g
Radioactivity in Pancreas (LNCaP cell xenografts; 6 h): 0.26 ± 0.08^a %ID/g
Radioactivity in Spleen (LNCaP cell xenografts; 6 h): 4.55 ± 1.18^a %ID/g
Radioactivity in Tumor (LNCaP cell xenografts; 6 h): 11.0 ± 2.68^a %ID/g
Compound: O=C(O)CCC(NC(=O)NC(CCCCNC(=O)C(Cc1ccc2ccccc2c1)NC(=O)C(CCC(=O)O)NC(=O)C(CCC(=O)O)NC(=O)COCC(CO)(CO)C[125I])C(=O)O)C(=O)O [[^125I]I-NpG-L-PSMA]
Form of radioactivity excreted in urine [2]: intact [^125I]I-NpG-L-PSMA and as radiometabolites
